Numbered stars: 1 amine (or outer) side, 2 acyl side, 3 side chain; on linkers, the order of the positions; unused ones are H or OH. Bridge positions count the residues as written; N and C are the ends. Square brackets hold non-standard residues; d marks the D form. Peptide text beside a SMILES is read from it. * marks the point of attachment. Benzoyl(4-Ph) = O=C(c1ccc(-c2ccccc2)cc1)*; X1 = c1ccc(-c2ccc(N*)cc2)cc1; NH(2-ClPh) = Clc1ccccc1N*; dDab = NCC[C@@H](N)C(=O)O; Octanoyl = CCCCCCCC(=O)*; Dab = NCC[C@H](N)C(=O)O; CO = O=C([*:1])[*:2]
Key:
[1] = system: HepG2; conditions: CC50 HepG2 (µM)
[2] = system: P. aeruginosa PA9704, PmxR; conditions: MIC P. aeruginosa PA9704, PmxR (µg/mL)
[3] = system: K. pneumoniae CI Koprana 100650661:1, PmxR; conditions: MIC K. pneumoniae CI Koprana 100650661:1, PmxR (µg/mL)
[4] = system: S. aureus ATCC 25923, MSSA; conditions: MIC S. aureus ATCC 25923, MSSA (µg/mL)
[5] = system: K. pneumoniae CI 138-16357-20362, PmxR; conditions: MIC K. pneumoniae CI 138-16357-20362, PmxR (µg/mL)
[6] = system: primary human renal proximal tubule epithelial (hPT) cells; experiment: Nephrotoxicity assay, GGT release; type: cell-based; conditions: for GGT release CC50: primary human kidney cells
Source text: (§1) Primary human renal proximal tubule epithelial (hPT) cells were isolated and used for in vitro prediction of drug-induced nephrotoxicity[63],[64],[69] by measuring the release of metabolism enzymes, LDH and GGT, as previously described.[70]

[7] = system: primary human renal proximal tubule epithelial (hPT) cells; experiment: Nephrotoxicity assay, LDH release; type: cell-based; conditions: for LDH release CC50: primary human kidney cells
Source text: as §1

[8] = system: K. pneumoniae CI Koprana 100650661:1, PmxR; experiment: microbe, parasite or virus in culture; type: cell-based, Klebsiella pneumoniae; conditions: carbapenem & polymyxin resistant clinical isolate; MHB, 5 × 10^5 CFU/mL, 18 h at 37 °C
Description: (§2) Bacteria were either obtained from American Type Culture Collection (ATCC; Manassas, VA, USA) or independent academic clinical isolate collections, as listed in Table S2. Bacteria were cultured in nutrient broth (NB; Bacto Laboratories, catalog no. 234000) or Muller Hinton broth (MHB; Bacto Laboratories, catalog no. 211443) at 37 °C overnight with shaking (∼180 rpm). A sample of each culture was then diluted 50-fold in fresh MHB and incubated at 37 °C for 1.5–3 h with shaking (∼180 rpm). Compound stock solutions were prepared as 0.64 or 2.56 mg/mL in water. The compounds, at twice the final desired concentration, were serially diluted 2-fold across the wells of 96-well plates (Polystyrene, Corning, catalogue No. 3370). Mid log phase bacterial cultures (after 1.5–3 h incubation) were diluted to a final concentration of 5 × 10^5 colony forming units (CFU)/mL, and 50 μL was added to each well giving a final compound concentration range of 32 μg/mL to 0.015 μg/mL (128–0.06 μg/mL for colistin and polymyxin B against the polymyxin resistant clinical isolates). MICs were determined visually after 18 h of incubation at 37 °C, with the MIC defined as the lowest compound concentration at which no bacterial growth was visible.
(§3) Table S2. Bacterial strains used for Minimum Inhibitory Concentration (MIC) […]
(§4) Organism Strain Strain description Strain Source
(§5) Escherichia coli ATCC 25922 FDA strain Seattle 1946 ATCC
(§6) Klebsiella pneumoniae ATCC 13883 Control strain ATCC
(§7) Klebsiella pneumoniae ATCC 700603 Multi-drug resistant ATCC
(§8) Klebsiella pneumoniae BAA-2146 Metallo-beta-lactamase- ATCC
(§9) Acinetobacter baumannii ATCC 19606 Type strain ATCC
(§10) Pseudomonas aeruginosa ATCC 27853 Type strain ATCC
(§11) Pseudomonas aeruginosa FADDI-PA070 Clinical isolate, Nation and Li labs, polymyxin resistant Monash University
(§12) Clinical isolate, Wang Hengzhuang, Pseudomonas aeruginosa PA9704 polymyxin resistant University Hospital of […]
(§13) Ptyela Clinical isolate, Ilias Karaiskos and Acinetobacter baumannii Carbapenem & Helen Giamarellou
(§14) Clinical isolate, Medicine, Hygeia
(§15) Klebsiella pneumoniae Koprana Carbapenem, & General Hospital, […]
(§16) Clinical isolate, (Instituto Dante […]
(§17) polymyxin resistant Cardiologia, São […]

[9] = system: K. pneumoniae CI 138-16357-20362, PmxR; experiment: microbe, parasite or virus in culture; type: cell-based, Klebsiella pneumoniae; conditions: carbapenem & polymyxin resistant clinical isolate; MHB, 5 × 10^5 CFU/mL, 18 h at 37 °C
Description: as §2, §3, §4, §5, §6, §7, §8, §9, §10, §11, §12, §13, §14, §15, §16, §17

[10] = system: S. aureus ATCC 25923, MSSA; experiment: microbe, parasite or virus in culture; type: cell-based, Staphylococcus aureus; conditions: MHB, 5 × 10^5 CFU/mL, read visually after 18 h at 37 °C
Description: as §2, §3, §4, §5, §6, §7, §8, §9, §10, §11, §12, §13, §14, §15, §16, §17

[11] = system: HepG2 cells; experiment: Cytotoxicity assay (resazurin assay); type: cell-based, human; conditions: 4000 cells/well, 24 h incubation with compound, fluorescence 560/590
Description: Cytotoxicity to HEK293 and HepG2 cells was determined using the resazurin assay.[67],[68] […] Compounds were then added into each well. After 24 h incubation, 5 μM resazurin was added per well and incubated at 37 °C for 2 h. Fluorescence intensity was then read using a Polarstar Omega with excitation/emission 560/590. The data were then analyzed using GraphPad Prism 6 software. CC50 values were determined using GraphPad Prism 6 software (Inc. La Jolla, CA).

[12] = system: A. baumannii CI Ptyela 100734512:2, PmxR; conditions: MIC A. baumannii CI Ptyela 100734512:2, PmxR (µg/mL)
[13] = system: P. aeruginosa PA9704, PmxR; type: cell-based, Pseudomonas aeruginosa; conditions: polymyxin resistant clinical isolate; MHB, 5 × 10^5 CFU/mL, 18 h at 37 °C
Description: as §2, §3, §4, §5, §6, §7, §8, §9, §10, §11, §12, §13, §14, §15, §16, §17

[14] = system: A. baumannii CI Ptyela 100734512:2, PmxR; experiment: microbe, parasite or virus in culture; type: cell-based, Acinetobacter baumannii; conditions: carbapenem & polymyxin resistant clinical isolate; MHB, 5 × 10^5 CFU/mL, 18 h at 37 °C
Description: as §2, §3, §4, §5, §6, §7, §8, §9, §10, §11, §12, §13, §14, §15, §16, §17

[15] = system: K. pneumoniae ATCC 13883; conditions: MIC K. pneumoniae ATCC 13883 (µg/mL)
[16] = system: P. aeruginosa ATCC 27853; conditions: MIC P. aeruginosa ATCC 27853 (µg/mL)
[17] = system: K. pneumoniae ATCC 700603, MDR; conditions: MIC K. pneumoniae ATCC 700603, MDR(µg/mL)
[18] = system: A. baumannii ATCC 19606; conditions: MIC A. baumannii ATCC 19606 (µg/mL)
[19] = system: P. aeruginosa FADDI-PA070, PmxR; conditions: MIC P. aeruginosa FADDI-PA070, PmxR (µg/mL)
[20] = system: E. coli ATCC 25922; conditions: MIC E. coli ATCC 25922 (µg/mL)
[21] = at 100 μg/mL in the primary kidney cells

SMILES | CC50 [1] [µM] | MIC [2] [µg/mL] | MIC [3] [µg/mL] | MIC [4] [µg/mL] | MIC [5] [µg/mL] | GGT release CC50 [6] [µg/mL] | LDH release CC50 [7] [µg/mL] | MIC K. pneumoniae CI Koprana 100650661:1, PmxR [8] [µg/mL] | MIC K. pneumoniae CI 138-16357-20362, PmxR [9] [µg/mL] | MIC [12] [µg/mL] | also measured
CC(C)C[C@@H]1NC(=O)[C@@H](Cc2ccccc2)NC(=O)[C@H](CCN)NC(=O)[C@@H](NC(=O)[C@H](CCN)NC(=O)[C@@H](NC(=O)[C@H](CCN)NC(=O)c2ccc(-c3ccccc3)cc2)[C@@H](C)O)CCNC(=O)[C@H]([C@@H](C)O)NC(=O)[C@H](CCN)NC(=O)[C@H](CCN)NC1=O [Compound 10] ({Benzoyl(4-Ph)}-[Dab]T[Dab][Dab][Dab][dF]L[Dab][Dab]T; lactam 4-C) | 298 | > 32 | > 32 | > 32 | > 32 | >128 | >128 | >32 | >32 | – | release of GGT [6, 21]: almost no release; release of LDH [7, 21]: almost no release
CC(C)C[C@@H]1NC(=O)[C@@H](Cc2ccccc2)NC(=O)[C@H](CCN)NC(=O)[C@@H](NC(=O)[C@@H](CCN)NC(=O)[C@@H](NC(=O)[C@H](CCN)NC(=O)Nc2ccccc2Cl)[C@@H](C)O)CCNC(=O)[C@H]([C@@H](C)O)NC(=O)[C@H](CCN)NC(=O)[C@H](CCN)NC1=O [Compound 16] ({NH(2-ClPh)-CO}-[Dab]T[dDab][Dab][Dab][dF]L[Dab][Dab]T; lactam 4-C) | > 300 | > 32 | > 32 | > 32 | > 32 | – | – | >32 | >32 | > 32 | MIC S. aureus ATCC 25923, MSSA [10]: >32 µg/mL; HepG2 - CC50 [11]: >300 µM; MIC P. aeruginosa PA9704, PmxR [13]: >32 µg/mL; MIC A. baumannii CI Ptyela 100734512:2, PmxR [14]: >32 µg/mL
CCCCCCCC(=O)N[C@@H](CCN)C(=O)N[C@H](C(=O)N[C@@H](CCN)C(=O)N[C@H]1CCNC(=O)[C@H]([C@@H](C)O)NC(=O)[C@H](CCN)NC(=O)[C@H](CCN)NC(=O)[C@H](CC(C)C)NC(=O)[C@@H](Cc2ccccc2)NC(=O)[C@H](CCNC(=O)[C@@H](N)CCC(=O)O)NC1=O)[C@@H](C)O [Compound 32] (Octanoyl-[Dab]T[Dab][Dab][Dab](Glu)[dF]L[Dab][Dab]T; lactam 4-C) | > 300 | > 32 | > 32 | > 32 | > 32 | – | – | >32 | >32 | > 32 | MIC [15]: > 32 µg/mL; MIC [16]: > 32 µg/mL; MIC [17]: > 32 µg/mL; MIC [18]: > 32 µg/mL; MIC [19]: > 32 µg/mL; MIC [20]: > 32 µg/mL
CC(C)C[C@@H]1NC(=O)[C@@H](Cc2ccccc2)NC(=O)[C@H](CCN)NC(=O)[C@@H](NC(=O)[C@H](CCN)NC(=O)[C@@H](NC(=O)[C@H](CCN)NC(=O)Nc2ccc(-c3ccccc3)cc2)[C@@H](C)O)CCNC(=O)[C@H]([C@@H](C)O)NC(=O)[C@H](CCN)NC(=O)[C@H](CCN)NC1=O [Compound 15] ({X1-CO}-[Dab]T[Dab][Dab][Dab][dF]L[Dab][Dab]T; lactam 4-C) | 316 | – | – | – | > 32 | >128 | >128 | – | >32 | – | –

— PMC4774972, “Activity and Predicted Nephrotoxicity of Synthetic Antibiotics Based on Polymyxin B” (Journal of Medicinal Chemistry, 2016)
